Details: for molar entropy: 101.33 kPa, Small (less than 1 g) adiabatic calorimetry; for vapor or sublimation pressure: Calculated from knudsen effusion weight loss; for Triple point temperature: Adiabatic calorimetry

CCCCCCCCCCCCCCCCn1cc[n+](C)c1.O=S(=O)([N-]S(=O)(=O)C(F)(F)F)C(F)(F)F
Details | molar entropy [J/K/mol] | vapor or sublimation pressure [kPa]
5 K, Crystal 2 | 1.23 | –
10 K, Crystal 2 | 7.81 | –
15 K, Crystal 2 | 19.15 | –
20 K, Crystal 2 | 33.76 | –
25 K, Crystal 2 | 50.4 | –
30 K, Crystal 2 | 68.27 | –
35 K, Crystal 2 | 86.83 | –
40 K, Crystal 2 | 105.7 | –
45 K, Crystal 2 | 124.7 | –
50 K, Crystal 2 | 143.7 | –
60 K, Crystal 2 | 181.5 | –
70 K, Crystal 2 | 218.5 | –
80 K, Crystal 2 | 254.6 | –
90 K, Crystal 2 | 289.6 | –
100 K, Crystal 2 | 323.6 | –
110 K, Crystal 2 | 356.7 | –
120 K, Crystal 2 | 388.9 | –
130 K, Crystal 2 | 420.2 | –
140 K, Crystal 2 | 450.7 | –
150 K, Crystal 2 | 480.4 | –
160 K, Crystal 2 | 509.6 | –
170 K, Crystal 2 | 538.1 | –
180 K, Crystal 2 | 566.1 | –
190 K, Crystal 2 | 593.7 | –
200 K, Crystal 2 | 621 | –
210 K, Crystal 2 | 647.9 | –
220 K, Crystal 2 | 674.5 | –
230 K, Crystal 2 | 701.1 | –
240 K, Crystal 2 | 727.5 | –
250 K, Crystal 2 | 754.1 | –
260 K, Crystal 2 | 780.8 | –
270 K, Crystal 2 | 808.1 | –
280 K, Crystal 2 | 836.2 | –
290 K, Crystal 2 | 866.1 | –
298.15 K, Crystal 2 | 893.4 | –
300 K, Crystal 2 | 900.3 | –
305.5 K, Crystal 1 | 922.5 | –
305.5 K, Crystal 2 | 922.5 | –
310 K, Crystal 1 | 941 | –
319.25 K, Crystal 1 | 971.3 | –
319.25 K, Liquid | 1132 | –
320 K, Liquid | 1134 | –
330 K, Liquid | 1164 | –
340 K, Liquid | 1194 | –
350 K, Liquid | 1222 | –
360 K, Liquid | 1251 | –
370 K, Liquid | 1279 | –
508.07 K, Liquid | – | 3.21e-05
513.07 K, Liquid | – | 4.5e-05
518.07 K, Liquid | – | 6.31e-05
523.07 K, Liquid | – | 8.75e-05
528.06 K, Liquid | – | 0.0001197
533.07 K, Liquid | – | 0.0001644

Details | Triple point temperature [K]
Crystal 1 | 319.25
Crystal 2 | 305.5

CCCCCCCCCCn1cc[n+](C)c1.O=S(=O)([N-]S(=O)(=O)C(F)(F)F)C(F)(F)F
Details | molar entropy [J/K/mol]
5 K, Crystal 2 | 1.18
10 K, Crystal 2 | 7.33
15 K, Crystal 2 | 17.93
20 K, Crystal 2 | 31.5
25 K, Crystal 2 | 46.8
30 K, Crystal 2 | 63.01
35 K, Crystal 2 | 79.61
40 K, Crystal 2 | 96.26
50 K, Crystal 2 | 129.2
60 K, Crystal 2 | 161.4
70 K, Crystal 2 | 192.7
80 K, Crystal 2 | 222.8
90 K, Crystal 2 | 252
100 K, Crystal 2 | 280.3
110 K, Crystal 2 | 307.8
120 K, Crystal 2 | 334.4
130 K, Crystal 2 | 360.4
140 K, Crystal 2 | 385.8
150 K, Crystal 2 | 410.5
160 K, Crystal 2 | 434.8
170 K, Crystal 2 | 458.6
180 K, Crystal 2 | 482.1
190 K, Crystal 2 | 505.4
200 K, Crystal 2 | 528.6
210 K, Crystal 2 | 551.8
220 K, Crystal 2 | 575.2
230 K, Crystal 2 | 599.3
240 K, Crystal 2 | 625.2
249 K, Crystal 1 | 653.6
249 K, Crystal 2 | 653.6
252 K, Crystal 1 | 662.4
260 K, Crystal 1 | 682.3
270 K, Crystal 1 | 707.5
277.33 K, Crystal 1 | 726.3
277.33 K, Liquid | 829.8
280 K, Liquid | 836.9
290 K, Liquid | 863.1
298.15 K, Liquid | 883.9
300 K, Liquid | 888.6
310 K, Liquid | 913.5
320 K, Liquid | 937.9
330 K, Liquid | 961.7
340 K, Liquid | 985.1
350 K, Liquid | 1008
360 K, Liquid | 1031
370 K, Liquid | 1053

Details | Triple point temperature [K]
Crystal 1 | 277.33
Crystal 2 | 249

CCCCCCCCCCCCCCn1cc[n+](C)c1.O=S(=O)([N-]S(=O)(=O)C(F)(F)F)C(F)(F)F
Details | molar entropy [J/K/mol] | vapor or sublimation pressure [kPa]
5 K, Crystal 2 | 1.17 | –
10 K, Crystal 2 | 7.53 | –
15 K, Crystal 2 | 18.57 | –
20 K, Crystal 2 | 32.77 | –
25 K, Crystal 2 | 48.94 | –
30 K, Crystal 2 | 66.22 | –
35 K, Crystal 2 | 84.11 | –
40 K, Crystal 2 | 102.3 | –
45 K, Crystal 2 | 120.5 | –
50 K, Crystal 2 | 138.7 | –
60 K, Crystal 2 | 174.7 | –
70 K, Crystal 2 | 209.8 | –
80 K, Crystal 2 | 244 | –
90 K, Crystal 2 | 277.1 | –
100 K, Crystal 2 | 309.3 | –
110 K, Crystal 2 | 340.5 | –
120 K, Crystal 2 | 370.8 | –
130 K, Crystal 2 | 400.3 | –
140 K, Crystal 2 | 429.1 | –
150 K, Crystal 2 | 457.2 | –
160 K, Crystal 2 | 484.6 | –
170 K, Crystal 2 | 511.6 | –
180 K, Crystal 2 | 538.1 | –
190 K, Crystal 2 | 564.2 | –
200 K, Crystal 2 | 589.9 | –
210 K, Crystal 2 | 615.5 | –
220 K, Crystal 2 | 640.8 | –
230 K, Crystal 2 | 666 | –
240 K, Crystal 2 | 691.3 | –
250 K, Crystal 2 | 716.7 | –
260 K, Crystal 2 | 742.5 | –
270 K, Crystal 2 | 769.1 | –
280 K, Crystal 2 | 797.3 | –
290 K, Crystal 2 | 829.7 | –
295.5 K, Crystal 1 | 850.6 | –
295.5 K, Crystal 2 | 850.6 | –
298.15 K, Crystal 1 | 860.5 | –
300 K, Crystal 1 | 866 | –
308.77 K, Crystal 1 | 891.2 | –
308.77 K, Liquid | 1037 | –
310 K, Liquid | 1041 | –
320 K, Liquid | 1070 | –
330 K, Liquid | 1098 | –
340 K, Liquid | 1125 | –
350 K, Liquid | 1152 | –
360 K, Liquid | 1179 | –
370 K, Liquid | 1205 | –
498.07 K, Liquid | – | 2.76e-05
503.06 K, Liquid | – | 3.85e-05
508.05 K, Liquid | – | 5.39e-05
513.05 K, Liquid | – | 7.45e-05
518.04 K, Liquid | – | 0.0001018
523.05 K, Liquid | – | 0.0001397
528.05 K, Liquid | – | 0.0001898

Details | Triple point temperature [K]
Crystal 1 | 308.77
Crystal 2 | 295.5
